Laboratory results as given in patent US4140785A, “N-(benzothienopyrazol)amide antirhinoviral agents” (E. I. Du Pont de Nemours and Company, priority 1978, dated 1979).
Converted amounts (≈) assume the structure as drawn. Read-outs that look alike come from different tables or passages of the source.

Legend:
[1] = system: influenza A virus strains; conditions: prophylaxis and symptomatic treatment; cited from earlier work
[2] = system: herpes simplex keratitis; conditions: topical treatment; cited from earlier work
[3] = system: rhinovirus; assay: In vitro activity against rhinovirus strains (overall); format: cell-based; conditions: preferred compounds
[4] = system: Rhinovirus 998; assay: Plaque inhibition in HeLa cells, rhinovirus 998; conditions: for Plaque counts per plate: 998, untreated 190; for MIC: Enterovirus
[5] = system: Rhinovirus 1492; assay: Plaque inhibition in HeLa cells, rhinovirus 1492; conditions: for Plaque counts per plate: 1492, untreated 255; for MIC: Enterovirus
[6] = system: Rhinovirus type 3; assay: Plaque inhibition in HeLa cells, rhinovirus type 3; conditions: for Plaque counts per plate: type 3, untreated 170; for MIC: Enterovirus
[7] = system: Rhinovirus type 1A; assay: Plaque inhibition in HeLa cells, rhinovirus type 1A; conditions: for Plaque counts per plate: type 1A, untreated 211; for MIC: Enterovirus
[8] = system: Rhinovirus type 14; assay: Plaque inhibition in HeLa cells, rhinovirus type 14; conditions: for Plaque counts per plate: type 14, untreated 194; for MIC: Enterovirus
[9] = system: Rhinovirus type 15; assay: Plaque inhibition in HeLa cells, rhinovirus type 15; conditions: for Plaque counts per plate: type 15, untreated 145; for MIC: Enterovirus
[10] = system: Rhinovirus type 39; assay: Plaque inhibition in HeLa cells, rhinovirus type 39; conditions: for Plaque counts per plate: type 39, untreated 112; for MIC: Enterovirus
[11] = system: Rhinovirus type 51; assay: Plaque inhibition in HeLa cells, rhinovirus type 51; conditions: for Plaque counts per plate: type 51, untreated 118; for MIC: Enterovirus
[12] = system: Rhinovirus 1425; assay: Plaque inhibition in HeLa cells, rhinovirus 1425; conditions: Enterovirus, read-out: Minimum Inhibitory Concentration (MIC)
[13] = system: Rhinovirus 1662; assay: Plaque inhibition in HeLa cells, rhinovirus 1662; conditions: Enterovirus, read-out: Minimum Inhibitory Concentration (MIC)
[14] = system: Rhinovirus 4005; assay: Plaque inhibition in HeLa cells, rhinovirus 4005; conditions: Enterovirus, read-out: Minimum Inhibitory Concentration (MIC)
[15] = system: Rhinovirus 6579; assay: Plaque inhibition in HeLa cells, rhinovirus 6579; conditions: Enterovirus, read-out: Minimum Inhibitory Concentration (MIC)
[16] = system: Rhinovirus type 2; assay: Plaque inhibition in HeLa cells, rhinovirus type 2; conditions: Enterovirus, read-out: Minimum Inhibitory Concentration (MIC)
[17] = system: Rhinovirus type 5; assay: Plaque inhibition in HeLa cells, rhinovirus type 5; conditions: Enterovirus, read-out: Minimum Inhibitory Concentration (MIC)
[18] = system: Rhinovirus type 1b; assay: Plaque inhibition in HeLa cells, rhinovirus type 1B; conditions: Enterovirus, read-out: Minimum Inhibitory Concentration (MIC)
[19] = system: Rhinovirus type 13; assay: Plaque inhibition in HeLa cells, rhinovirus type 13; conditions: Enterovirus, read-out: Minimum Inhibitory Concentration (MIC)
[20] = system: Rhinovirus type 41; assay: Plaque inhibition in HeLa cells, rhinovirus type 41; conditions: Enterovirus, read-out: Minimum Inhibitory Concentration (MIC)
[21] = system: smallpox; conditions: cited from earlier work
[22] = read-out: Minimum Inhibitory Concentration (MIC)

SMILES: Cl.NC12CC3CC(CC(C3)C1)C2 [1-aminoadamantane hydrochloride]
- Effectiveness against illness caused by influenza A virus [1]: effective for the prophylaxis and symptomatic treatment of illness caused by influenza A virus strains

SMILES: Nc1ncnc2c1ncn2[C@@H]1O[C@H](CO)[C@@H](O)[C@@H]1O [adenine arabinoside]
- Effectiveness in herpes simplex keratitis [2]: effective for the topical treatment of herpes simplex keratitis

SMILES: O=c1[nH]c(=O)n([C@H]2C[C@H](O)[C@@H](CO)O2)cc1I [Idoxuridine]
- Effectiveness in herpes simplex keratitis [2]: effective for the topical treatment of herpes simplex keratitis

SMILES: CCC(CC)(CC)C(=O)Nc1nn(C)c2c1sc1ccccc12
- Level of antirhinovirus activity [3]: high level of antirhinovirus activity
- Plaque counts per plate ([4]; 0.1 μg/ml): 103 Plaque counts per plate
- Plaque counts per plate ([4]; 0.5 μg/ml): 0 Plaque counts per plate
- Plaque counts per plate ([4]; 1.0 μg/ml): 0 Plaque counts per plate
- Plaque counts per plate ([4]; 2.0 μg/ml): 0 Plaque counts per plate
- MIC [4]: 0.5 mg/L (≈ 1.52 µM)
- Plaque counts per plate ([5]; 0.1 μg/ml): 140 Plaque counts per plate
- Plaque counts per plate ([5]; 0.5 μg/ml): 12 Plaque counts per plate
- Plaque counts per plate ([5]; 1.0 μg/ml): 0 Plaque counts per plate
- Plaque counts per plate ([5]; 2.0 μg/ml): 0 Plaque counts per plate
- MIC [5]: 1 mg/L (≈ 3.04 µM)
- Plaque counts per plate ([6]; 0.1 μg/ml): 119 Plaque counts per plate
- Plaque counts per plate ([6]; 0.5 μg/ml): 0 Plaque counts per plate
- Plaque counts per plate ([6]; 1.0 μg/ml): 0 Plaque counts per plate
- Plaque counts per plate ([6]; 2.0 μg/ml): 0 Plaque counts per plate
- MIC [6]: 0.5 mg/L (≈ 1.52 µM)
- Plaque counts per plate ([7]; 0.1 μg/ml): 153 Plaque counts per plate
- Plaque counts per plate ([7]; 0.5 μg/ml): 60 Plaque counts per plate
- Plaque counts per plate ([7]; 1.0 μg/ml): 4 Plaque counts per plate
- Plaque counts per plate ([7]; 2.0 μg/ml): 0 Plaque counts per plate
- MIC [7]: 2 mg/L (≈ 6.07 µM)
- Plaque counts per plate ([8]; 0.1 μg/ml): 125 Plaque counts per plate
- Plaque counts per plate ([8]; 0.5 μg/ml): 20 Plaque counts per plate
- Plaque counts per plate ([8]; 1.0 μg/ml): 0 Plaque counts per plate
- Plaque counts per plate ([8]; 2.0 μg/ml): 0 Plaque counts per plate
- MIC [8]: 1 mg/L (≈ 3.04 µM)
- Plaque counts per plate ([9]; 0.1 μg/ml): 61 Plaque counts per plate
- Plaque counts per plate ([9]; 0.5 μg/ml): 0 Plaque counts per plate
- Plaque counts per plate ([9]; 1.0 μg/ml): 0 Plaque counts per plate
- Plaque counts per plate ([9]; 2.0 μg/ml): 0 Plaque counts per plate
- MIC [9]: 0.5 mg/L (≈ 1.52 µM)
- Plaque counts per plate ([10]; 0.1 μg/ml): 65 Plaque counts per plate
- Plaque counts per plate ([10]; 0.5 μg/ml): 4 Plaque counts per plate
- Plaque counts per plate ([10]; 1.0 μg/ml): 0 Plaque counts per plate
- Plaque counts per plate ([10]; 2.0 μg/ml): 0 Plaque counts per plate
- MIC [10]: 1 mg/L (≈ 3.04 µM)
- Plaque counts per plate ([11]; 0.1 μg/ml): 211 Plaque counts per plate
- Plaque counts per plate ([11]; 0.5 μg/ml): 28 Plaque counts per plate
- Plaque counts per plate ([11]; 1.0 μg/ml): 0 Plaque counts per plate
- Plaque counts per plate ([11]; 2.0 μg/ml): 0 Plaque counts per plate
- MIC [11]: 1 mg/L (≈ 3.04 µM)

SMILES: Cn1nc(NC(=O)C(C)(C)C)c2sc3ccccc3c21 [2,2-dimethyl-N-(1-methyl-1H-(1)benzothieno[3,2-c]pyrazol-3-yl)propanamide]
- Level of antirhinovirus activity [3]: high level of antirhinovirus activity

SMILES: CCC(CC)C(=O)Nc1nn(C)c2c1sc1ccccc12 [Example 63, 2-ethyl-N-(1-methyl-1H-(1)benzothieno[3,2-c]pyrazol-3-yl)butanamide]
- Level of antirhinovirus activity [3]: high level of antirhinovirus activity
- MIC [4, 22]: 1 mg/L (≈ 3.32 µM)
- MIC [12]: 2 mg/L (≈ 6.64 µM)
- MIC [5, 22]: 1 mg/L (≈ 3.32 µM)
- MIC [13]: 1 mg/L (≈ 3.32 µM)
- MIC [14]: 2 mg/L (≈ 6.64 µM)
- MIC [15]: 2 mg/L (≈ 6.64 µM)
- MIC [16]: 2 mg/L (≈ 6.64 µM)
- MIC [6, 22]: 0.5 mg/L (≈ 1.66 µM)
- MIC [17]: 2 mg/L (≈ 6.64 µM)
- MIC [7, 22]: 1 mg/L (≈ 3.32 µM)
- MIC [18]: 2 mg/L (≈ 6.64 µM)
- MIC [19]: 2 mg/L (≈ 6.64 µM)
- MIC [8, 22]: 1 mg/L (≈ 3.32 µM)
- MIC [9, 22]: 0.5 mg/L (≈ 1.66 µM)
- MIC [10, 22]: 0.5 mg/L (≈ 1.66 µM)
- MIC [20]: 2 mg/L (≈ 6.64 µM)
- MIC [11, 22]: 1 mg/L (≈ 3.32 µM)

SMILES: CN1C(=O)/C(=N\NC(N)=S)c2ccccc21 [Methisazone]
- Effectiveness for prevention of smallpox [21]: effective for the prevention of smallpox

SMILES: Cn1nc(NC(=O)CC2CCCC2)c2sc3ccccc3c21 [Example 62]
- MIC [4, 22]: 2 mg/L (≈ 6.38 µM)
- MIC [12]: 2 mg/L (≈ 6.38 µM)
- MIC [5, 22]: 2 mg/L (≈ 6.38 µM)
- MIC [13]: 8 mg/L (≈ 25.5 µM)
- MIC [14]: 2 mg/L (≈ 6.38 µM)
- MIC [15]: 2 mg/L (≈ 6.38 µM)
- MIC [16]: 2 mg/L (≈ 6.38 µM)
- MIC [6, 22]: 4 mg/L (≈ 12.8 µM)
- MIC [17]: 2 mg/L (≈ 6.38 µM)
- MIC [7, 22]: 6 mg/L (≈ 19.1 µM)
- MIC [18]: 2 mg/L (≈ 6.38 µM)
- MIC [19]: 2 mg/L (≈ 6.38 µM)
- MIC [8, 22]: 6 mg/L (≈ 19.1 µM)
- MIC [9, 22]: 5 mg/L (≈ 16 µM)
- MIC [10, 22]: 2 mg/L (≈ 6.38 µM)
- MIC [20]: 2 mg/L (≈ 6.38 µM)
- MIC [11, 22]: 8 mg/L (≈ 25.5 µM)

SMILES: CC(=O)Nc1nn(C)c2c1sc1ccccc12 [Example 65, N-(1-methyl-1H-(1)benzothieno[3,2-c]pyrazol-3-yl)-acetamide]
- MIC [4, 22]: 8 mg/L (≈ 32.6 µM)
- MIC [12]: 2 mg/L (≈ 8.15 µM)
- MIC [5, 22]: 8 mg/L (≈ 32.6 µM)
- MIC [13]: 10 mg/L (≈ 40.8 µM)
- MIC [14]: 2 mg/L (≈ 8.15 µM)
- MIC [15]: 5 mg/L (≈ 20.4 µM)
- MIC [16]: 4 mg/L (≈ 16.3 µM)
- MIC [6, 22]: 4 mg/L (≈ 16.3 µM)
- MIC [17]: 4 mg/L (≈ 16.3 µM)
- MIC [7, 22]: 8 mg/L (≈ 32.6 µM)
- MIC [18]: 6 mg/L (≈ 24.5 µM)
- MIC [19]: 5 mg/L (≈ 20.4 µM)
- MIC [8, 22]: 8 mg/L (≈ 32.6 µM)
- MIC [9, 22]: 5 mg/L (≈ 20.4 µM)
- MIC [10, 22]: 8 mg/L (≈ 32.6 µM)
- MIC [20]: 2 mg/L (≈ 8.15 µM)
- MIC [11, 22]: 8 mg/L (≈ 32.6 µM)

SMILES: CC(C)CC(=O)Nc1nn(C)c2c1sc1ccccc12 [Example 64]
- MIC [4, 22]: 1 mg/L (≈ 3.48 µM)
- MIC [12]: 4 mg/L (≈ 13.9 µM)
- MIC [5, 22]: 2 mg/L (≈ 6.96 µM)
- MIC [13]: 2 mg/L (≈ 6.96 µM)
- MIC [14]: 2 mg/L (≈ 6.96 µM)
- MIC [15]: 2 mg/L (≈ 6.96 µM)
- MIC [16]: 2 mg/L (≈ 6.96 µM)
- MIC [6, 22]: 1 mg/L (≈ 3.48 µM)
- MIC [17]: 2 mg/L (≈ 6.96 µM)
- MIC [7, 22]: 1 mg/L (≈ 3.48 µM)
- MIC [18]: 2 mg/L (≈ 6.96 µM)
- MIC [19]: 2 mg/L (≈ 6.96 µM)
- MIC [8, 22]: 1 mg/L (≈ 3.48 µM)
- MIC [9, 22]: 1 mg/L (≈ 3.48 µM)
- MIC [10, 22]: 1 mg/L (≈ 3.48 µM)
- MIC [20]: 2 mg/L (≈ 6.96 µM)
- MIC [11, 22]: 2 mg/L (≈ 6.96 µM)

SMILES: Cn1nc(NC(=O)c2cccnc2)c2sc3ccccc3c21 [Example 66]
- MIC [4, 22]: 2 mg/L (≈ 6.49 µM)
- MIC [12]: 2 mg/L (≈ 6.49 µM)
- MIC [5, 22]: 6 mg/L (≈ 19.5 µM)
- MIC [13]: 8 mg/L (≈ 25.9 µM)
- MIC [14]: 2 mg/L (≈ 6.49 µM)
- MIC [15]: 2 mg/L (≈ 6.49 µM)
- MIC [16]: 2 mg/L (≈ 6.49 µM)
- MIC [6, 22]: 6 mg/L (≈ 19.5 µM)
- MIC [17]: 2 mg/L (≈ 6.49 µM)
- MIC [7, 22]: 5 mg/L (≈ 16.2 µM)
- MIC [18]: 2 mg/L (≈ 6.49 µM)
- MIC [19]: 2 mg/L (≈ 6.49 µM)
- MIC [8, 22]: 8 mg/L (≈ 25.9 µM)
- MIC [9, 22]: 4 mg/L (≈ 13 µM)
- MIC [10, 22]: 2 mg/L (≈ 6.49 µM)
- MIC [20]: 2 mg/L (≈ 6.49 µM)
- MIC [11, 22]: 6 mg/L (≈ 19.5 µM)
